# Publication PMC11087268, “A folate inhibitor exploits metabolic differences in Pseudomonas aeruginosa for narrow-spectrum targeting” (Nature Microbiology, 2024)
# Columns and labels:
# [1] = system: S. aureus USA300; assay: Growth with or without TMI supplementation and fluorofolin, S. aureus USA300; assay type: cell-based, Staphylococcus aureus; details: fluorofolin 2X MIC
# Protocol: (§1) Where listed, growth media were prepared according manufacturer recommendations: LB broth and LB broth supplemented with 0.3 mM thymine (BD Biosciences 244610, Alfa Aesar A15879), 0.3 mM methionine (Sigma-Aldrich M9625), 0.3 mM inosine (EMD Millipore 4060), cation-adjusted Mueller–Hinton II broth (CAMHB) (BD 212322) or 0.3 mM thymidine (Sigma-Aldrich T1895), Gutnick minimal media (1.0 g l^−1 K2SO4, 13.5 g l^−1 K2HPO4, 4.7 g l^−1 KH2PO4, 0.1 g l^−1 MgSO4·7H2O, 10 mM NH4Cl as a nitrogen source and 0.4% w/v glucose as a carbon source)[65].
# (§2) Extended Data Fig. 3 TMI supplementation can also rescue other species from fluorofolin DHFR inhibition. […] (f) P. aeruginosa PA14 or E. coli lptd4213 treated with fluorofolin 50 μg/mL in the presence or absence of 0.3 mM thymidine. (g) E. coli lptd4213 treated with fluorofolin 50 μg/mL and SMX (78.1 μg/mL) in the presence or absence of 0.3 mM thymidine or 0.3 mM TMI supplementation, Curves represent average optical at 600 nm (OD600) of 2 biological replicates. Means are shown. Source data
# [2] = system: Enterococcus faecalis ATCC 51575; assay: MIC (WuXi, Mueller–Hinton broth) against E. faecalis; assay type: cell-based; details: ATCC51575
# Protocol: (§3) Bacterial colonies (4–8) of strains of interest were vortexed in saline and adjusted to an OD600 of 0.2. Strains were diluted 1:200 into CAMHB media in 96-well plates. Antibiotics were serially diluted 1:3 in DMSO, and 1 μl of each dilution was added to bacteria. The plates were incubated for 18–20 h at 37 °C before observation.
# [3] = system: P. aeruginosa PA14; assay: Colony-forming units counting after antibiotic treatment; assay type: cell-based, Pseudomonas aeruginosa; details: for PA14 CFU/mL, Mean: 2× MIC (fluorofolin 6.2, TMP 250, polymixin B 4 μg ml^−1)
# Protocol: P. aeruginosa PA14 overnight cultures were diluted 1:100 and grown to exponential phase (OD600 = 0.4–0.6). Cultures were diluted 1:10 and treated with antibiotic. At each time point, 150 μl of culture was removed, serial diluted 1:10 six times and plated onto LB agar plates. Plates were grown overnight at 37 °C, after which visible colonies were counted. C.f.u.s ml^−1 are reported from dilutions in which ~10–100 single colonies were visible.
# [4] = system: Staphylococcus aureus NRS384; assay: MIC (WuXi, Mueller–Hinton broth) against S. aureus NRS384; assay type: cell-based
# Protocol: as §3
# [5] = biological target: T1, E. coli DHFR (FolA) (Escherichia coli, UniProt P0ABQ4); assay: In vitro DHFR activity, purified E. coli FolA; assay type: biochemical; details: for fractional initial velocity: E. coli FolA
# T1 construct: purchased Genscript
# T1 sequence (P0ABQ4 whole entry): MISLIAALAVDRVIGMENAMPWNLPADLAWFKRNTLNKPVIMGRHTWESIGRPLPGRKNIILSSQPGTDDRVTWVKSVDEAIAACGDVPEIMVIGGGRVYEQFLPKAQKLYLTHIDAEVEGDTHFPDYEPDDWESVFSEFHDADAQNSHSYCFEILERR
# Protocol: As described previously, purified E. coli dihydrofolate reductase (FolA) was purified by Genscript. Enzyme activity was measured on a QuantaMaster 40 spectrophotometer (Photon Technology) using the DHFR reductase assay kit with slight modifications. E. coli FolA was diluted 1:1,000 into 1× assay buffer. Of this mixture, 100 μl with or without compound was added to a BRAND UV cuvette (Sigma-Aldrich BR759200) and sample transmitted light intensity at 340 nm was measured for 100 s at 1 kHz sampling. Readings were averaged for every 1 Hz and the activity of each sample was calculated from the slope (β) of a linear regression of the log-transformed intensity measurements on MATLAB R2022B. To account for enzyme stability, measurements were normalized to a standard condition (60 μM NADPH and 100 μM DHF) measured immediately before the sample of interest. The relative activity was calculated as (βsample − βnoEnzyme)/(βstandard − βnoEnzyme).
# [6] = system: E. cloacae; assay: Growth with or without TMI supplementation and fluorofolin, E. cloacae; assay type: cell-based, Enterobacter cloacae; details: fluorofolin 2X MIC
# Protocol: as §1, §2
# [7] = system: Acinetobacter baumannii ATCC 17978; assay: MIC (WuXi, Mueller–Hinton broth) against A. baumannii ATCC 17978; assay type: cell-based; details: ATCC17978, performed by WuXi
# Protocol: as §3
# [8] = system: P. aeruginosa PA14 oprM transposon mutant; assay: microbe, parasite or virus in culture; assay type: cell-based; details: Pseudomonas aeruginosa
# Protocol: (§4) Overnight cultures were diluted 1:150 in LB broth and added to a 96-well plate. Antibiotics were serially diluted 1:2 and added to columns of the 96-well plate and grown at 37 °C with continuous shaking. Cell growth was measured using optical density at 600 nm (OD600). MIC assays were performed in either BioTek Synergy HT or Tecan InfiniteM200 Pro microplate readers.
# (§5) P. aeruginosa PA14 transposon mutants were generated by the Ausubel Lab (https://pa14.mgh.harvard.edu/cgi-bin/pa14/home.cgi)[67]. The MICs of fluorofolin and TMP against strains with disrupted MexA, MexB and OprM were determined as above and compared to the parental strain. As transposon mutants in MexB were represented twice in this collection, the MIC was confirmed across both mutant strains.
# [9] = system: P. aeruginosa PA14 mexA transposon mutant; assay: microbe, parasite or virus in culture; assay type: cell-based; details: Pseudomonas aeruginosa
# Protocol: as §4, §5
# [10] = system: P. aeruginosa PA14 mexB transposon mutant; assay: microbe, parasite or virus in culture; assay type: cell-based; details: Pseudomonas aeruginosa
# Protocol: as §4, §5
# [11] = system: Enterobacter cloacae ATCC BAA-1143; assay: MIC against E. cloacae in LB broth; assay type: cell-based; details: ATCCBAA1143, 16 h
# Protocol: as §4
# [12] = system: HLF (human lung fibroblast); assay: Mammalian cell cytotoxicity, HLF; assay type: cell-based; details: 72 h, CyQUANT, read-out: IC50 Fluorofolin
# Protocol: HK-2 (500 cells per well) (ATCC CRL-2190), HLF (500 cells per well) (Cell Applications 506K-05a), WI-38 (500 cells per well) (ATCC CCL-75) or PBMC (5,000 cells per well) (TPCS PB010C) cells were seeded in white opaque 384-well plates. After 24 h, DMSO or compounds were added in 3-fold dilutions and cells incubated for 72 h. For PBMC, CellTiter-Glo reagent was added in equal volume and incubated for 30 min, after which luminescence was read. For other cell types, CyQUANT detection reagent was added in equal volume and cells incubated for 1 h, after which fluorescence was read with standard green filter set […]. Cell toxicity was evaluated by Pharmaron.
# [13] = system: Salmonella typhimurium CMCC 50115; assay: MIC (WuXi, Mueller–Hinton broth) against S. typhimurium; assay type: cell-based; details: Salmonella enterica, performed by WuXi
# Protocol: as §3
compound,measurement,setting,value
Nc1nc(N)c2c(ccc3c2ccn3Cc2ccnc(F)c2)n1 [fluorofolin],rescue of growth inhibition by TMI supplementation,[1],could also be rescued from fluorofolin growth inhibition by TMI supplementation
same,MIC,[2],0.01 µg/mL
same,type of antibacterial activity,"[3]; PA14, rich media",bacteriostatic
same,"PA14 CFU/mL, Mean",[3]; Time 0 h,197000 CFU/mL
same,"PA14 CFU/mL, Mean",[3]; Time 1 h,211000 CFU/mL
same,"PA14 CFU/mL, Mean",[3]; Time 2 h,171000 CFU/mL
same,"PA14 CFU/mL, Mean",[3]; Time 4 h,206667 CFU/mL
same,MIC,[4],0.03 µg/mL
same,IC50,[5],2.5 ± 1.1 nM
same,fractional initial velocity,[5]; Fluorofolin 9.91e-5 uM,1.007
same,fractional initial velocity,[5]; Fluorofolin 0.000507393 uM,1.009
same,fractional initial velocity,[5]; Fluorofolin 0.000792664 uM,0.7937
same,fractional initial velocity,[5]; Fluorofolin 0.00101479 uM,0.7819
same,fractional initial velocity,[5]; Fluorofolin 0.00152192 uM,0.9341
same,fractional initial velocity,[5]; Fluorofolin 0.00158533 uM,0.5604
same,fractional initial velocity,[5]; Fluorofolin 0.00202957 uM,0.702
same,fractional initial velocity,[5]; Fluorofolin 0.00405914 uM,0.5491
same,fractional initial velocity,[5]; Fluorofolin 0.00608766 uM,0.1317
same,fractional initial velocity,[5]; Fluorofolin 0.00634131 uM,0.5169
same,fractional initial velocity,[5]; Fluorofolin 0.00811828 uM,0.197
same,fractional initial velocity,[5]; Fluorofolin 0.0121753 uM,0.07555
same,fractional initial velocity,[5]; Fluorofolin 0.0126826 uM,0.0002002
same,fractional initial velocity,[5]; Fluorofolin 0.0162366 uM,0.3634
same,fractional initial velocity,[5]; Fluorofolin 0.0253653 uM,0.0004461
same,fractional initial velocity,[5]; Fluorofolin 0.0324731 uM,-0.0327
same,rescue of growth inhibition by TMI supplementation,[6],could also be rescued from fluorofolin growth inhibition by TMI supplementation
same,MIC,[7],0.8 µg/mL
same,MIC,[8],1.5 µg/mL
same,MIC,[9],1.5 µg/mL
same,MIC,[10],1.5 µg/mL
same,MIC,[11],12.5 µg/mL
same,IC50,[12],17.2 µg/mL
same,MIC,[13],0.03 µg/mL
